Results reported in US20220409617A1, “Drug Formulations and Methods of Treatment for Metabolic Disorders” (The Regents of the University of California, priority 2019, published 2022).

Assays:
[1] = Plasma pharmacokinetics in mice; type: in vivo; conditions: mouse, po, single dose 120 mg/kg by gavage
Method: Plasma pharmacokinetic analysis of sphingolipid-like compound 893 was performed by Pharmaron Corporation (Beijing, China). C16:0 ceramide levels were quantified in cells using the method described in (T. Kasumov, et al., Anal. Biochem. 401: 154-161, 2010, the disclosure of which is incorporated herein by reference) with minor modifications. Cultured cells were washed twice in PBS and scraped into 250 μL of HPLC grade water and flash frozen until time of analysis. On the day of analysis, samples were thawed, and an aliquot used for protein quantification. For C16:0 ceramide levels in mouse liver, 25 mg of tissue was homogenized in 1 ml of ice-cold PBS using a mechanical probe homogenizer (VWR, Radnor, Pa.), protein levels quantified, and 50 μl of the homogenate diluted with 150 μl HPLC-grade water for C16:0 ceramide analysis. […] Samples were analyzed by ultra-performance liquid chromatography tandem mass spectrometry (UPLC-MS/MS) using a Waters Micromass Quattro Premier XE equipped with a Waters ACQUITY BEH C4 column (Waters Corp.). […] Standard curves prepared from C16:0 ceramide (#860516, Avanti Polar Lipids, Alabaster, Ala.) dissolved in ethanol were used for quantitation and were linear from 4.1 nM-1,000 nM, with an R^2 of 0.98 or greater.

DRP1 = DRP1 recruitment to mitochondria (DRP1/citrate synthase co-localization) and DRP1 western blot; type: cell-based, mouse; conditions: MEFs
Method: Mature adipocytes were serum starved for 16 h then treated with vehicle, ceramide (50 or 100 μM), or sphingolipid-like compound 893 (5 or 10 μM) in serum-free media supplemented with 0.2% fatty-acid free BSA for 3 h after which 100 nM insulin was added for 15 min. To determine total DRP1 protein levels, 100,000 MEFs were seeded into a 6-well plate for 16 h, pre-treated for 3 h with vehicle or sphingolipid-like compound 893 (5 μM) followed by a 3 h incubation in 1% BSA+ethanol or BSA-palmitate (250 μM). Cells were washed once with cold PBS, then lysed in cold RIPA buffer (140 mM NaCl, 10 mM Tris pH 8.0, 1% Triton X-100, 0.1% SDS, 1% sodium deoxycholate) with cOmplete™ protease inhibitor (Cat no. 11697498001, Millipore Sigma, St. Louis, Mo.) and phosSTOP™ phosphatase inhibitor (Cat no. 4906837001, Millipore Sigma). Samples were incubated on ice for 10 min and insoluble material removed by centrifugation (9000×g for 10 min at 4° C.). Protein content was quantified in the supernatant using the Pierce™ BCA Protein Assay Kit (Thermo-Fisher Scientific, Waltham, Mass.). Equal amounts of protein were prepared in NuPAGE® LDS Sample Buffer (NP0007, Invitrogen) containing 50 mM DTT, and heated at 70° C. for 10 min. Proteins were resolved on a NuPAGE® 4-12% Bis-Tris protein gel (NP0336, Invitrogen, Carlsbad, Calif.) and subsequently transferred to a nitrocellulose membrane. Membranes were blocked in 5% BSA in TBST for 1 h, then probed with primary antibodies overnight at 4° C. […] Band intensity was quantified using Image Studio Lite V5.2 software (Li-COR).
MEFs were washed twice with PBS and fixed with 4% paraformaldehyde for 10 min at RT. […] NADH/NADPH autofluorescence was detected with 740 nm excitation and 450±50 nm detectors using a Mai Tai two-photon laser. Fluorescence microscopy was performed on a Zeiss LSM 780 confocal using a 63× oil objective with a […] numerical aperture (NA) or using a Nikon TE2000-S inverted epifluorescence microscope with a 100× oil objective (1.3 NA) and a Photometrics CoolSNAP ES2 monochrome CCD camera. […]

CCCCCCCCc1ccc([C@H]2CCN[C@@H]2CO)cc1.Cl [compound 893]
Tmax [1]: 4 h | half-life [1]: 10.6 h | DRP1 recruitment to mitochondria in response to palmitate (DRP1; 893 5 μM or YM201636 800 nM 3 h, then palmitate 250 μM 3 h): prevented the recruitment of the GTPase that mediates fission, DRP1, to mitochondrial membranes | DRP1 protein expression levels (DRP1; 893 5 μM, palmitate 250 μM, western blot): without affecting DRP1 protein expression levels
